Measured values reported in patent publication US9969698B2, “Quinoxalinyl-piperazinamide methods of use” (REXAHN PHARMACEUTICALS, INC., priority 2015, dated 2018).

Test system: ovarian tumor xenograft (SK-OV3)
Test: Ovarian tumor xenograft model
Format: in vivo, mice
Conditions: oral, 5ON/2OFF
Source text: The efficacy of RX-5902 in human cancer xenograft mouse models is examined. Female nude mice (nu/nu, Harlan or CRL: NU(NCr)-Foxn1^nu, Charles River), 9-10 weeks old, with a body weight (BW) range of 15-30 g on day 1 of the study, are fed ad libitum water (reverse osmosis, 1 ppm C1), and NIH 31 Modified and Irradiated Lab Diet® consisting of 18.0% crude protein, 5.0% crude fat, and 5.0% crude fiber. The mice are housed on irradiated Enrich-o'Cobs™ Laboratory Animal Bedding in static microisolators on a 12-hour light cycle at 20-22° C. (68-72° F.) and 40-60% humidity. […]
The cells are harvested during exponential growth and re-suspended with phosphate buffered saline. Each test animal receives a subcutaneous (s.c.) injection of 5×10^6 tumor cells into the right flank and tumor growth is monitored as the average tumor size approaches the target range of 80-300 mm^3. […] Tumors and body weights are measured regularly until the study is terminated.
Tumors are measured in two dimensions using calipers, and volume is calculated using the formula: […]
Treatment efficacy is determined using data from Day 15. The MTV (n), the median tumor volume for the number of animals, n, on Day 15, is determined for each group. […]
Animals are monitored individually for tumor growth until Day 71. […] The time to endpoint (TTE) for each mouse is calculated with the following equation: […]

SMILES: COc1cc(OC)cc(N2CCN(C(=O)Nc3nc4cc(F)ccc4nc3OC)CC2)c1 [RX-5902, 4-(3,5-dimethoxyphenyl)-N-(7-fluoro-3-methoxyquinoxalin-2-yl)piperazine-1-carboxamide]
- TGD % (40 mg/kg): 6%^
- TGD % (70 mg/kg): 49%^
